According to PMC11325084, “Pharmacokinetics and tissue distribution of LN002, a new compound alternative oxidase inhibitor against Cryptosporidium in rats” (Frontiers in Pharmacology, 2024):

Experiments:
[1] = Tissue distribution of LN002 after oral administration in rats; format: in vivo, Sprague–Dawley (SD) rats; conditions: oral 200 mg/kg; for Cmax / Tmax / half-life: both sexes, Sprague-Dawley, rat; for Cmax / Tmax / half-life / AUC0-24 h: SD rats
Procedure: Thirty SD rats (15 for each sex) were randomly and equally assigned to 5 groups (half male and half female). The rats in each group were euthanized with pentobarbital sodium (a dose of 180 mg/kg) at five different time points: 0.5, 2, 6, 12 and 24 h after oral administration at 200 mg/kg LN002. Subsequently, various tissues, including the heart, liver, spleen, lungs, kidneys, brain, muscles, small intestine, and intestinal contents, were promptly collected ([Verma et al., 2022]). The dissected tissues were rinsed with normal saline, dried with an absorbent paper, homogenized using a tissue homogenizer, and stored at a temperature of −20°C until further analysis.
Tissue samples and intestinal contents were accurately weighed to 0.5 ± 0.02 g in a 10 mL EP tube and added with 2 mL of extraction solvent (acetonitrile: methanol [2:1, v/v]). The extraction solvent was vortexed for 1 min and centrifuged at 6,000 rpm and 4°C for 10 min. The supernatant was transferred to a new test tube and vortexed after adding 2 mL of water. The sample was purified using solid-phase extraction (SPE) using methanol as the extraction solvent. The Poly-Sery MAX SPE Cartridge (Shanghai Anpu Experimental Technology Co., Ltd., Shanghai, China) was added with 3 mL of methanol to activate, 3 mL of water to rinse, and the abovementioned extraction solvent. Afterward, 2 mL of 10% methanol water was poured into extraction columns to elute impurities. Finally, 1.5 mL of methanol was added to elute the compound and collect the eluent. Twenty microliters of the eluent was passed through a 0.22 μm filter membrane and then injected into the HPLC system for analysis.
A Shimadzu LC-20A system (Shimadzu Technologies, Kyoto, Japan) equipped with a LabSolutions system (version 5.1) system was used for HPLC analysis. The separation process utilized an ARD-C18 column (250 mm × 4.6 mm, 5 µm) (Zhongpu Technology Co., Ltd., Fuzhou, China). The analytes were detected using a UV detector at 333 nm. The chromatographic conditions used an isocratic mobile phase that combines methanol (solvent A) and deionized water (solvent B) (75:25, v/v), and they were propelled through the column at a constant flow rate of 1 mL/min, ensuring uniform separation. The injection volume was 20 μL. The temperature of the column was set to 40°C.
Pharmacokinetic data were obtained via non-compartmental PK analysis of total concentration versus time profiles for plasma using Phoenix WinNonlin 8.2 (Certara, L.P., Princeton, NJ, United States). Statistical analysis and graphing were undertaken using GraphPad Prism 9.5 for Windows (GraphPad Software, Inc., La Jolla, CA, United States).

[2] = Stability of LN002 in rat plasma, liver homogenate and intestinal contents under storage conditions; format: in vitro ADME; set-up: Short-term stability at room temperature (6 h), measured concentration / Freeze and thaw stability at −20°C/Room temperature (3 cycles), measured concentration / Auto-sampler stability (12 h), measured concentration / Long-term stability at −20°C (30 days), measured concentration: unit not given here; conditions: for Auto-sampler stability (12 h), measured concentration / Freeze and thaw stability at −20°C/Room temperature (3 cycles), measured concentration / Long-term stability at −20°C (30 days), measured concentration / Short-term stability at room temperature (6 h), measured concentration: n = 6, mean ± SD
Procedure: By investigating the low, middle, and high-concentration stability of rat plasma, the liver and intestinal contents in six replicates at different storage conditions, autosampler, short-term, freeze and thaw, long-term stability, and stock solution stability evaluations were conducted.

[3] = intestinal contents, n = 6, mean ± SD
[4] = intestinal contents, nominal concentration 50 ng/g
[5] = intestinal contents, nominal concentration 200 ng/g
[6] = intestinal contents, nominal concentration 1,000 ng/g
[7] = liver, nominal concentration 50 ng/g
[8] = liver, nominal concentration 200 ng/g
[9] = liver, nominal concentration 1,000 ng/g
[10] = plasma, nominal concentration 50 ng/mL
[11] = plasma, nominal concentration 200 ng/mL
[12] = plasma, nominal concentration 1,000 ng/mL

Cmax ([1]; brain, n = 6, mean ± SD): 456 ± 80.9 ng/g | Tmax ([1]; brain, n = 6, mean ± SD): 0.58 ± 0.19 h | half-life ([1]; brain, n = 6, mean ± SD): 5.2 ± 2.31 h | Cmax ([1]; heart, n = 6, mean ± SD): 972 ± 165 ng/g | Tmax ([1]; heart, n = 6, mean ± SD): 0.57 ± 0.11 h | half-life ([1]; heart, n = 6, mean ± SD): 6.82 ± 1.65 h | Cmax [1, 3]: 4.45e+06 ng/g | Tmax [1, 3]: 3.33 ± 1.6 h | half-life [1, 3]: 1.64 ± 0.01 h | Cmax ([1]; intestine, n = 6, mean ± SD): 607000 ng/g | Tmax ([1]; intestine, n = 6, mean ± SD): 2.67 ± 1.49 h | half-life ([1]; intestine, n = 6, mean ± SD): 5.48 ± 1.48 h | Tmax ([1]; kidney, n = 6): 0.5 h | Cmax ([1]; kidney, n = 6, mean ± SD): 561 ± 135 ng/g | half-life ([1]; kidney, n = 6, mean ± SD): 5.03 ± 1.52 h | Cmax ([1]; liver, n = 6, mean ± SD): 478 ± 157 ng/g | Tmax ([1]; liver, n = 6, mean ± SD): 0.67 ± 0.19 h | half-life ([1]; liver, n = 6, mean ± SD): 5.54 ± 0.66 h | Cmax ([1]; lung, n = 6, mean ± SD): 8700 ± 1410 ng/g | Tmax ([1]; lung, n = 6, mean ± SD): 2.09 ± 0.43 h | half-life ([1]; lung, n = 6, mean ± SD): 5.43 ± 1.6 h | Cmax ([1]; muscle, n = 6, mean ± SD): 3980 ± 589 ng/g | Tmax ([1]; muscle, n = 6, mean ± SD): 0.58 ± 0.19 h | half-life ([1]; muscle, n = 6, mean ± SD): 6.3 ± 2.71 h | Tmax ([1]; spleen, n = 6): 0.5 h | Cmax ([1]; spleen, n = 6, mean ± SD): 645 ± 187 ng/g | half-life ([1]; spleen, n = 6, mean ± SD): 5.8 ± 1.93 h | AUC0-24 h ([1]; brain, n = 6, mean ± SD): 1328.60 ± 176.19 h⋅ng/g | AUC0-24 h ([1]; heart, n = 6, mean ± SD): 3855.84 ± 323.04 h⋅ng/g | AUC0-24 h [1, 3]: 35080673.50 ± 644,065.57 h⋅ng/g | AUC0-24 h ([1]; intestine, n = 6, mean ± SD): 2185750.70 ± 149,399.23 h⋅ng/g | AUC0-24 h ([1]; kidney, n = 6, mean ± SD): 1781.24 ± 453.85 h⋅ng/g | AUC0-24 h ([1]; liver, n = 6, mean ± SD): 4051.62 ± 586.44 h⋅ng/g | AUC0-24 h ([1]; lung, n = 6, mean ± SD): 84,344.09 ± 9677.76 h⋅ng/g | AUC0-24 h ([1]; muscle, n = 6, mean ± SD): 12,634.31 ± 2366.24 h⋅ng/g | AUC0-24 h ([1]; spleen, n = 6, mean ± SD): 2280.55 ± 418.06 h⋅ng/g | Auto-sampler stability (12 h), measured concentration [2, 4]: 0.048 ± 0.001 | Freeze and thaw stability at −20°C/Room temperature (3 cycles), measured concentration [2, 4]: 0.050 ± 0.002 | Long-term stability at −20°C (30 days), measured concentration [2, 4]: 0.048 ± 0.002 | Short-term stability at room temperature (6 h), measured concentration [2, 4]: 0.051 ± 0.002 | Auto-sampler stability (12 h), measured concentration [2, 5]: 0.191 ± 0.011 | Freeze and thaw stability at −20°C/Room temperature (3 cycles), measured concentration [2, 5]: 0.192 ± 0.009 | Long-term stability at −20°C (30 days), measured concentration [2, 5]: 0.202 ± 0.003 | Short-term stability at room temperature (6 h), measured concentration [2, 5]: 0.204 ± 0.007 | Auto-sampler stability (12 h), measured concentration [2, 6]: 1.001 ± 0.034 | Freeze and thaw stability at −20°C/Room temperature (3 cycles), measured concentration [2, 6]: 0.978 ± 0.053 | Long-term stability at −20°C (30 days), measured concentration [2, 6]: 0.997 ± 0.012 | Short-term stability at room temperature (6 h), measured concentration [2, 6]: 0.976 ± 0.042 | Auto-sampler stability (12 h), measured concentration [2, 7]: 0.049 ± 0.002 | Freeze and thaw stability at −20°C/Room temperature (3 cycles), measured concentration [2, 7]: 0.051 ± 0.002 | Long-term stability at −20°C (30 days), measured concentration [2, 7]: 0.051 ± 0.002 | Short-term stability at room temperature (6 h), measured concentration [2, 7]: 0.050 ± 0.003 | Auto-sampler stability (12 h), measured concentration [2, 8]: 0.198 ± 0.007 | Freeze and thaw stability at −20°C/Room temperature (3 cycles), measured concentration [2, 8]: 0.205 ± 0.005 | Long-term stability at −20°C (30 days), measured concentration [2, 8]: 0.196 ± 0.007 | Short-term stability at room temperature (6 h), measured concentration [2, 8]: 0.197 ± 0.009 | Auto-sampler stability (12 h), measured concentration [2, 9]: 1.065 ± 0.036 | Freeze and thaw stability at −20°C/Room temperature (3 cycles), measured concentration [2, 9]: 0.985 ± 0.057 | Long-term stability at −20°C (30 days), measured concentration [2, 9]: 0.995 ± 0.064 | Short-term stability at room temperature (6 h), measured concentration [2, 9]: 0.984 ± 0.042 | Auto-sampler stability (12 h), measured concentration [2, 10]: 0.050 ± 0.002 | Freeze and thaw stability at −20°C/Room temperature (3 cycles), measured concentration [2, 10]: 0.048 ± 0.002 | Long-term stability at −20°C (30 days), measured concentration [2, 10]: 0.052 ± 0.002 | Short-term stability at room temperature (6 h), measured concentration [2, 10]: 0.051 ± 0.003 | Auto-sampler stability (12 h), measured concentration [2, 11]: 0.204 ± 0.014 | Freeze and thaw stability at −20°C/Room temperature (3 cycles), measured concentration [2, 11]: 0.197 ± 0.014 | Long-term stability at −20°C (30 days), measured concentration [2, 11]: 0.203 ± 0.006 | Short-term stability at room temperature (6 h), measured concentration [2, 11]: 0.210 ± 0.013 | Auto-sampler stability (12 h), measured concentration [2, 12]: 0.992 ± 0.061 | Freeze and thaw stability at −20°C/Room temperature (3 cycles), measured concentration [2, 12]: 1.028 ± 0.035 | Long-term stability at −20°C (30 days), measured concentration [2, 12]: 1.035 ± 0.080 | Short-term stability at room temperature (6 h), measured concentration [2, 12]: 0.987 ± 0.032 | Stability in plasma and tissue homogenate (in words) ([2]; rat plasma, liver, intestinal contents, short-term, freeze and thaw, auto-sampler, long-term): stable
SMILES: N#C/C(=C\c1c[nH]nc1-c1ccccc1)c1nn(-c2ccccc2)c(N)c1C#N [LN002, 5-amino-3-[1-cyano-2-(3-phenyl-4-vinopyrazole))-1-phenyl-4-vinopyrazole]
Rank order of concentration in tissues and intestinal contents ([1]; rats): intestinal contents, followed by the small intestine, lung, muscle, heart, liver, spleen, kidney, and brain | Detection in tissues at the last time point (in words) ([1]; rats, 24 h): detected at 24 h in all tissues and intestinal contents
